pKi: −log10 of the molar value. Values joined by “and” are separate entries in the source; they are usually repeats but may differ in a detail not shown here. Identical values can stand only once.
Tests used:
D2 = D2 (Homo sapiens (Human), UniProt P14416); experiment: D2 binding assay ([3H] 7-OH-DPAT, HEK293 D2L membranes); conditions: numeric values
Experimental: D2 Binding Assay Protocol
The testing compounds were diluted with DMSO, starting at 2 mM, with 8-points and 5-fold serial dilutions. droperidol was diluted with DMSO, starting at 0.2 mM, with 8-points and 4-fold serial dilutions.
1 μL of a compound of the present disclosure and the reference compound (Table O) was transferred to an assay plate. 1 μL of droperidol was transferred to an assay plate according to the plate map for nonspecific binding (Low control: LC). 1 μL of DMSO was transferred to an assay plate according to the plate map for total binding (High control: HC). Following a plate map, 100 μL of the membrane stock solutions and radio ligand were added into the plate. The plates were sealed and shaken with 300 rpm.
(§1) Unifilter-96 GF/C filter plates were soaked with 50 μL of 0.3% PEI per well for about 0.5 hours at room temperature. When the binding assays were complete, the reaction mixture was filtered through the GF/B filter plates using Perkin Elmer Filtermate Harvester, and each plate was washed 4 times with cold wash buffer. The filter plates were dried for 1 hour at 50° C. After drying, the bottom of the filter plate wells were sealed using Perkin Elmer Unifilter-96 backing seal tape. 50 μL of Perkin Elmer Microscint 20 cocktail was added. The top of the filter plates were sealed with Perkin Elmer TopSeal-A sealing film.
^3H trapped on filters were counted using Perkin Elmer MicroBeta2 Reader. Inhibition constants were calculated using the following equation: […]
The data was analyzed using Prism 5. The model used was “log(inhibitor) vs. response—Variable slope” to fit the data and calculate IC50. The IC50 was then converted to Ki using the following equation: Ki=IC50/(1+L/Kd), wherein L is the radioligand concentration in the reaction system; Kd is the affinity of radioligand to the receptor. As shown in Table Q Compound No. 7 has a lower affinity for D2 when compared to Compounds A-2, A-3, A-4, and A-5.

5-HT2C = 5-HT2C (Homo sapiens (Human), UniProt P28335); experiment: 5-HT2C binding assay ([3H]-Mesulergine, HEK293 membranes)
Chain of 5-HT2C (P28335 33-458): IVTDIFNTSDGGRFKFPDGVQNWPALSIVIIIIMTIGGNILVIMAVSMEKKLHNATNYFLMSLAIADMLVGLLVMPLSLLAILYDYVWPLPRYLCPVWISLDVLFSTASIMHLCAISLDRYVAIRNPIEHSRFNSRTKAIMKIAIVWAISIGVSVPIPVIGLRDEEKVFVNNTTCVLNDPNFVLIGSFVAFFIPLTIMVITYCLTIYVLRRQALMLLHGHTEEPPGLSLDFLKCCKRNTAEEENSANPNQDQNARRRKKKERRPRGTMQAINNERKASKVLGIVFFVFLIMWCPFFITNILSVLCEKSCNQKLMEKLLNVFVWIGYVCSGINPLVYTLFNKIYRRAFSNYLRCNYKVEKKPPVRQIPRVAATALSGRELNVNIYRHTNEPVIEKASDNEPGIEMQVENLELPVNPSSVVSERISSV
Experimental: 5-HT2C Binding Assay Protocol
The testing compounds were diluted with DMSO, starting at 2 mM, with 8-points and 5-fold serial dilutions.
1 μL of a compound of the present disclosure the reference compound (Table J) was transferred to an assay plate. […] 1 μL of DMSO was transferred to an assay plate according to the plate map for total binding (High control: HC).
as §1, with “GF/C” for “GF/B”
(§2) ^3H trapped on filters were counted using Perkin Elmer MicroBeta2 Reader. Inhibition constants were calculated using the following equation:
[formula] The data was analyzed using Prism 5. The model used was “log(inhibitor) vs. response—Variable slope” to fit the data and calculate IC50. The IC50 was then converted to Ki using the following equation: Ki=IC50/(1+L/Kd), wherein L is the radioligand concentration in the reaction system; Kd is the affinity of radioligand to the receptor.

5-HT2A = 5-HT2A (Homo sapiens (Human), UniProt P28223); experiment: 5-HT2A binding assay ([3H]-Ketanserin, HEK293 stable cell line membranes)
Chain of 5-HT2A (P28223 whole entry, species assumed): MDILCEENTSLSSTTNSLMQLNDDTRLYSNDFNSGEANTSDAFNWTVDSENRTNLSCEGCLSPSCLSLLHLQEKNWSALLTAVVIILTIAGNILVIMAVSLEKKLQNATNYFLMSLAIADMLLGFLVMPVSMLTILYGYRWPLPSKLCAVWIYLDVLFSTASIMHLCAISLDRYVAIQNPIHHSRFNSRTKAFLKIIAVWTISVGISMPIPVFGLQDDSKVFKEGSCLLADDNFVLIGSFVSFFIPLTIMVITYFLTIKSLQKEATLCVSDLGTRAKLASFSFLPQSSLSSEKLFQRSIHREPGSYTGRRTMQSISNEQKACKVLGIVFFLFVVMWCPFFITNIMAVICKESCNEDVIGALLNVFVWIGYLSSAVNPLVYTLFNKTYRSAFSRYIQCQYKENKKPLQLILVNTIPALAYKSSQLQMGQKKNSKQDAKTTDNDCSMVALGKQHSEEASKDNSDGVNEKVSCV
Experimental: H1 and 5-HT2A Binding Assay Protocol
(§3) The testing compounds were diluted with DMSO, starting at 2 mM, with 8-points and 5-fold serial dilutions. Ketanserin and Pyrilamine were diluted with DMSO, starting at 0.2 mM, with 8-points and 5-fold serial dilution.
(§4) 1 μl of a compounds of the present disclosure and either reference compound (Table C) were transferred to assay plates. 1 μl of 0.2 mM Ketanserin or Pyrilamine was transferred to an assay plate according to the plate map for nonspecific binding (Low control: LC). 1 μl of DMSO was transferred to an assay plate according to plate map for total binding (High control: HC).
(§5) 100 μlof membrane stocks were dispensed into the plates, following the plate map. 100 of radio ligand was added. The plates were sealed and shaken at 300 rpm at room temperature for 1 hour. The Unifilter-96 GF/C filter plates were soaked with 50 of 0.3% PEI per well for at least 0.5 hour at room temperature.
as §1, with “When” for “Unifilter-96 GF/C filter plates were soaked with 50 μL of 0.3% PEI per well for about 0.5 hours at room temperature. When”, “GF/C” for “the GF/B filter”, “and then” for “and”, “50 degrees.” for “50° C.”, “μl” for “μL”
as §2
(§6) [formula] The data was analyzed using Prism 5. The model used was “log(inhibitor) vs. response—Variable slope” to fit the data and calculate IC50. The IC50 was then converted to Ki using following equation: Ki=IC50/(1+L/Kd). L is the radioligand concentration in the reaction system; Kd is the affinity of radioligand to the receptor.

[1] = Human clearance and half-life projections (allometric scaling from monkey clearance); conditions: for T1/2 (h), projected human half-life: one-compartmental model, T1/2=0.693×(predicted Vd/predicted CL); for CL (mL/min/kg), projected human clearance: single species scaling from monkey clearance
Experimental: (§7) The biological activity of the compounds of the present disclosure may be determined utilizing projected human clearance (CL) and half-life in humans. An allometric scaling method, using a single species scaling from monkey clearance was used to project clearance. Human volume of distribution (Vd) was projected from animal Vd, adjusted for differences in plasma protein binding and assuming similar unbound Vd across species. Human half-life (T1/2) was calculated based on a one-compartmental model, using a relationship of T1/2=0.693×(predicted Vd/predicted CL).
as §7, with “An” for “The biological activity of the compounds of the present disclosure may be determined utilizing projected human clearance (CL) and half-life in humans. An”

H1 = H1 (Homo sapiens (Human), UniProt P35367); experiment: H1 binding assay ([3H]pyrilamine, HEK293 stable cell line membranes)
Chain of H1 (P35367 whole entry): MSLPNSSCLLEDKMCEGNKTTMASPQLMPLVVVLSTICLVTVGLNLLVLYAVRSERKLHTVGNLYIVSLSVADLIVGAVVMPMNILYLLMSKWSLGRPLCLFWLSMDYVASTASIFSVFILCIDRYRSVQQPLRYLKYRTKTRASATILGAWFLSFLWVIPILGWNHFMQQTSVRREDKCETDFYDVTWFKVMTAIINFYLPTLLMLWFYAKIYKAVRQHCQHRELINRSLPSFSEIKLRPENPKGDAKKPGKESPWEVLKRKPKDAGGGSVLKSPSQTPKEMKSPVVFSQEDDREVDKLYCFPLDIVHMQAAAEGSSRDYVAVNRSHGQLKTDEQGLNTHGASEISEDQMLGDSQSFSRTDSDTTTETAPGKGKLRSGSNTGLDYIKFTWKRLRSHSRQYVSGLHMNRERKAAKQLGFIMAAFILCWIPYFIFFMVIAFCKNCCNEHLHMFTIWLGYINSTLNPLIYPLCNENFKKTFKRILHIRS
Experimental: Example 25. H1 and 5-HT2A Binding Assay Protocol
as §3, §4, §5
as §1, with “When” for “Unifilter-96 GF/C filter plates were soaked with 50 μL of 0.3% PEI per well for about 0.5 hours at room temperature. When”, “GF/C” for “the GF/B filter”, “and then” for “and”, “50 degrees.” for “50° C.”, “μl” for “μL”
as §2, §6

male Wistar rats = experiment: SCORE EEG/EMG sleep-wake monitoring: sleep continuity, number of arousals, depth of sleep; type: in vivo, rat; conditions: for normalized EEG delta power (slow wave activity) during nonREM sleep / increase in sleep bout-length per hour relative to vehicle control / cumulative increase in Total Sleep Time (NREM+REM sleep) relative to baseline: CT-18, male Wistar rats; for reductions in the number of transitions from sleep to wake per hour relative to controls: CT-5, male Wistar rats; for cumulative increase in Total Sleep Time (NREM+REM sleep) relative to baseline: 30 hours post-treatment
Experimental: Example 30. Experimental Details and Methods for Determining Sleep Continuity, Number of Arousals, and Depth of Sleep
Treatment detail plots (see, e.g., FIGS. 1-10) depict pre- and post-treatment time series plot ±30 hours before and after treatment at CT-18 (6-hours after lights-off) or pre- and post-treatment time series plots 29 hr before and 31 hr after treatments at CT-5 (5-hours after lights-on). Treatment occurred at the beginning of the hour marked by a triangle on the abscissa of the plot. Variables were computed in hourly bins.
All data were plotted as group mean±SEM (see, e.g., FIGS. 1-10). The gray shaded area encompasses the vehicle treatment mean±SEM. Along the x-axis, time of treatment is marked by a triangle unless noted otherwise. Along the x-axis, light/dark bars indicate lights on/off.
Adult, male Wistar rats (approximately 270 g at time of surgery, Charles River Laboratories) were administered dexmedetomidine 25 μg/kg and anesthetized (2% isoflourane in 95/5 oxygen, to effect) and surgically prepared with a cranial implant that permitted chronic electro-encephalogram (EEG) and electromyogram (EMG) recording. Body temperature and locomotor activity were monitored via a miniature transmitter (Minimitter Series PDT4000 E-Mitter, Bend, Oreg.) surgically placed in the abdomen during the same anesthetic event when the cranial portion was implanted. The cranial implant consisted of miniature stainless steel screws (2 frontal [+3.9 AP from bregma, 2.0 ML], 2 occipital [−6.4 AP, 5.5 ML], and 1 ground placed sagittaly and posterior to lambda) for EEG recording. Two Teflon-coated multi-strand stainless steel wires were positioned under the nuchal trapezoid muscles for EMG recording. All leads were soldered to a miniature connector (Omnetics, Minneapolis, Minn.) and gas sterilized with ethylene oxide prior to surgery. The implant assembly was affixed to the skull by the combination of the EEG recording screws, cyanoacrylate applied between the hermetically sealed implant connector and skull, and a UV-curing dental acrylic. An analgesic (meloxicam 1 mg/kg IP) was administered 1 day prior to surgery and daily for 2 days post-surgery. Neosporin with lidocaine was applied topically to the peri-implant margin. At least three weeks were allowed for surgical recovery prior to any data collection.
Rats were housed individually within specially modified Innovive® cages equipped with a custom-built ultra-low-torque slip-ring commutator and a customized Innovive® polycarbonate cage-top. These cages were located on shelves of a modified stainless steel animal rack that was pre-wired for physiological and behavioral data collection. Food and water were available ad libitum and the ambient temperature was 22±1° C. A 24-hr light-dark cycle (LD 12:12) was maintained throughout the study using LED lighting strips. Light intensity averaged 35 lux at mid-level inside the cage. Relative humidity averaged 50% approximately. Animals were undisturbed for two days before and after each treatment.
Sleep and wakefulness were determined using SCORE™—a Linux and Windows-10 real-time computer-based sleep-wake and physiological monitoring system. Validation of the SCORE™ sleep stage identification algorithm in rodents and the system's utility in pre-clinical drug discovery and evaluation have been previously described (Edgar et al. Psychopharmacology 1991, 105, 374; Gilmour et al., Neuropharmacology 2012, 64, 224; McCarthy et al., 2016, Neuropharmacology 108, 415; Olive et al., J. Pharmacology &Experimental Therapeutics 1998 285, 1073; Phillips et al, Neuropharmacology 2012, 62, 1359; Seidel et al. J Pharmacology &Experimental Therapeutics 1995, 275, 263; Van Gelder et al. Sleep 1991, 14, 48). […]

Chain of D2 (P14416 whole entry): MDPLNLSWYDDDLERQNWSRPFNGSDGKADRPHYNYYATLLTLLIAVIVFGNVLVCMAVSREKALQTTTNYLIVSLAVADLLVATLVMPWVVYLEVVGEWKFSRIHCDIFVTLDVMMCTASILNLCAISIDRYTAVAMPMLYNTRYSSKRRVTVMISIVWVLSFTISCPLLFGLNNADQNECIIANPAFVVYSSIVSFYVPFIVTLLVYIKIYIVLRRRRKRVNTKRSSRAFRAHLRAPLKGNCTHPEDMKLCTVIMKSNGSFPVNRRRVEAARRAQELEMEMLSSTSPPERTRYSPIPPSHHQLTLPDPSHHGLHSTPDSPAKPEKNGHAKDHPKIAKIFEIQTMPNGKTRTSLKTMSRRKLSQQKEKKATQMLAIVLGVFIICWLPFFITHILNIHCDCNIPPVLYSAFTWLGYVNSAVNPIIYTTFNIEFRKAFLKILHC

Structure (SMILES) | pKi (D2) | pKi (5-HT2C; numeric values) | pKi (5-HT2A; Table F, class symbols) | T1/2 (h), projected human half-life [1] [h] | CL (mL/min/kg), projected human clearance [1] [mL/min/kg] | pKi (5-HT2C; Table L, class symbols) | pKi (H1; Table E, class symbols) | other results
Cc1ccc2c(c1)N=C(N1CCN(CC(C)(C)C(=O)O)CC1)c1cc(C)ccc1O2 [A-2, 3-(4-(2,8-dimethyldibenzo[b,f][1,4]oxazepin-11-yl)piperazin-1-yl)-2,2-dimethylpropanoic acid, reference compound] | 7.22 | 6.58 |  |  |  |  |  | 
Cc1ccc2c(c1)Oc1ccc(C)cc1C(N1CCN(CC(C)(C)C(=O)O)CC1)=N2 [A-3, 3-(4-(2,7-dimethyldibenzo[b,f][1,4]oxazepin-11-yl)piperazin-1-yl)-2,2-dimethylpropanoic acid, reference compound] | 6.82 | 6.90 |  |  |  |  |  | 
Cc1ccc2c(c1)N=C(N1CCN(CC(C)(C)C(=O)O)CC1)c1ccc(C)cc1O2 [A-4, 3-(4-(3,8-dimethyldibenzo[b,f][1,4]oxazepin-11-yl)piperazin-1-yl)-2,2-dimethylpropanoic acid, reference compound] | 5.72 | 6.11 |  |  |  |  |  | 
Cc1ccc2c(c1)Oc1cc(F)ccc1N=C2N1CCN(CC(C)(C)C(=O)O)CC1 [Compound No. 6, 3-(4-(7-fluoro-3-methyldibenzo[b,f][1,4]oxazepin-11-yl)piperazin-1-yl)-2,2-dimethylpropanoic acid] |  |  | 7.60 to 9.00 | 12 to 25 | 0.3 | < 6.30 | 7.60 to 9.00 | 
CC(C)(CN1CCN(C2=Nc3ccccc3Cc3ccccc32)CC1)C(=O)O [Compound No. 8, 3-(4-(11H-dibenzo[b,e]azepin-6-yl)piperazin-1-yl)-2,2-dimethylpropanoic acid] |  |  | < 7.30 | 2 to 4 | 1.8 | < 6.30 | 7.30 to 7.60 | pKi (5-HT2A; numeric values): ~7.06 and 7.06; pKi (H1; numeric values): 7.34; normalized EEG delta power (slow wave activity) during nonREM sleep (male Wistar rats; 3 mg/kg PO): increases in EEG slow wave activity in nonREM sleep; reductions in the number of transitions from sleep to wake per hour relative to controls (male Wistar rats; 10 mg/kg PO): up to 50%; increase in sleep bout-length per hour relative to vehicle control (male Wistar rats; 10 mg/kg PO): approximately 4 fold; cumulative increase in Total Sleep Time (NREM+REM sleep) relative to baseline (male Wistar rats; 30 mg/kg PO, listed as Compound 8): 70 min; cumulative increase in Total Sleep Time (NREM+REM sleep) relative to baseline (male Wistar rats; 30 mg/kg PO, listed as compound 8): approximately 70 minute
Cc1ccc2c(c1)Oc1cc(C(F)F)ccc1C(N1CCN(CC(C)(C)C(=O)O)CC1)=N2 [Compound No. 15, 3-(4-(3-(difluoromethyl)-7-methyldibenzo[b,f][1,4]oxazepin-11-yl)piperazin-1-yl)-2,2-dimethylpropanoic acid] |  |  | 7.60 to 9.00 |  |  |  | < 7.30 | reductions in the number of transitions from sleep to wake per hour relative to controls (male Wistar rats; 30 mg/kg PO): approximately 30%; increase in sleep bout-length per hour relative to vehicle control (male Wistar rats; 30 mg/kg PO): approximately 3 fold; normalized EEG delta power (slow wave activity) during nonREM sleep (male Wistar rats; 30 mg/kg PO): increases in EEG slow wave activity in nonREM sleep
CC(C)(CN1CCN(C2=Nc3ccccc3Oc3cc(C(F)F)ccc32)CC1)C(=O)O [Compound No. 36, 3-(4-(3-(difluoromethyl)dibenzo[b,f][1,4]oxazepin-11-yl)piperazin-1-yl)-2,2-dimethylpropanoic acid] |  |  |  | 14 to 50 | 0.4 |  |  | 
CC(C)(CN1CCN(C2=Nc3ccccc3Oc3cccc(F)c32)CC1)C(=O)O [Compound No. 39, 3-(4-(1-fluorodibenzo[b,f][1,4]oxazepin-11-yl)piperazin-1-yl)-2,2-dimethylpropanoic acid] |  |  | < 7.30 |  |  | > 7.00 | < 7.30 | 

— patent publication US11046651B2, “Piperazine substituted azapine derivatives and uses thereof” (Alairion, Inc., priority 2019, dated 2021)
